{
  "source": "patent US8258259B2",
  "about": "“Macromolecular compounds having controlled stoichiometry” (Starpharma Pty Limited, priority 2005, dated 2012)",
  "key": {"[1]": {"test_system": "T cell tropic NL4.3 strain of HIV-1", "experiment": "Antiviral efficacy: MT-2 cells infected with HIV-1 NL4.3, cell viability by MTS after 6 days (IC50)", "format": "cell-based", "settings": "for EC50: MT-2 cells infected with HIV-1 NL4.3, 6 days, MTS viability; for anti-HIV activity compared with SPL7013: MT-2 cells, HIV-1 NL4.3, comparison with homogenous surface dendrimer SPL7013 (Table 24)", "procedure": "MT-2 cells are infected with the T cell tropic NL4.3 strain of HIV-1 in the presence of 6, 5-fold serial concentrations of compound in triplicate wells of a 96 well plate. In the same plate, cells are exposed to the same drug concentrations in the absence of virus to determine the cytotoxic concentrations of the compound. […] Antimicrob Agents Chemother.\nAfter 6 days incubation at 37° C. in a CO2 incubator, cell viability of both virus-infected and uninfected cells is determined by incubating cells for 3-4 hours with 3-(4,5-dimethylthiazol-2-yl)-5-(3-carboxymethoxyphenyl)-2-(4-sulfophenyl)-2H-tetrazolium (MTS) according to manufacturer's instructions (CellTiter 96 AQueous One Solution Cell Proliferation assay (Promega, Madison Wis.))."}, "[2]": {"experiment": "Plasma clearance studies for radiolabelled (tritiated) macromolecules: plasma, urine, faeces and organ tritium after 5 mg/kg intravenous dose", "format": "in vivo", "settings": "rats; for plasma T½: tritiated macromolecule; for % of 3H dose excreted in total urine: urine collected 0-30 hr", "procedure": "Tritiated poly-lysine macromolecules were dissolved in phosphate buffered saline (PBS), pH 7.4) and frozen until required. Rats were intravenously administered 5 mg/kg of macromolecule via an indwelling cannula (implanted in the jugular vein) over 2 min.\nImmediately following dosing, a blood sample (t=0) was collected via an indwelling carotid artery cannula and placed in a heparinised eppendorf tube.\nBlood samples were then collected at predetermined intervals for the following 30 hr, and the plasma separated. In addition, urine and faeces were collected at 0-8 hr, 8-24 hr and 24-30 hr. At sacrifice (30 hr after the intravenous dose) the major organs (liver, kidneys, spleen, pancreas, heart, lung and brain) were collected and weighed. The tritium content of plasma, urine, faeces and the various tissue samples were determined using validated scintillation assays."}, "[3]": {"test_system": "T cell tropic NL4.3 strain of HIV-1", "settings": "positive control of the assay; Dezzutti et al. 2004; cited from earlier work"}},
  "note": "Entries after “also recorded” stand apart in the source; their conditions may differ. Marks after values point to notes of the source that are not given here.",
  "data": [
    {"substance": "BHALys[Lys]16 [α-COCH2O-3,6-Naph(SO3Na)2]16 [ε-CBz]16 [Example 39]", "values": [
      {"measurement": "EC50", "setting": "[1]", "value": 2.4, "unit": "µg/mL"}
    ]},
    {"substance": "BHALys[Lys]4[α-CO-4-PhSO3Na]4[ε-COC5H12]4 [Example 31]", "values": [
      {"measurement": "EC50", "setting": "[1]", "value": 344, "unit": "µg/mL"}
    ]},
    {"substance": "BHALys[Lys]4[Su(NPN)2]8[γ-CO-MTX-α-OtBu]8[COPEG24]8 [Example 60]", "values": [
      {"measurement": "plasma T½", "setting": "[2]", "value": "3.9 ± 0.1^a h"}
    ]},
    {"substance": "BHALys[Lys]8[α-CO2PEG3]8[ε-CO-3,5-Ph(SO3Na)2]8 [Example 34]", "values": [
      {"measurement": "EC50", "setting": "[1]", "value": 84.5, "unit": "µg/mL"}
    ]},
    {"substance": "BHALys[GlyLys]2[Lys]4[α,α-Boc]2[ε,α-COCH2O-3,6-Naph(SO3Na)2]2[ε,ε-COCH2O-3,6-Naph(SO3Na)2]2 [Example 42]", "values": [
      {"measurement": "EC50", "setting": "[1]", "value": 10.6, "unit": "µg/mL"}
    ]},
    {"substance": "BHALys[Lys]16 [α-CO-4-Ph(SO3Na)]16 [ε-CBz]16 [Example 41]", "values": [
      {"measurement": "EC50", "setting": "[1]", "value": 4.2, "unit": "µg/mL"}
    ]},
    {"substance": "BHALys[Lys]2[α,ε-Lys][COCH2O-3,6-Naph(SO3Na)2]2[Lys]3 [Boc]6 [Example 47]", "values": [
      {"measurement": "EC50", "setting": "[1]", "value": ">50", "unit": "µg/mL"}
    ]},
    {"substance": "BHALys[Lys]8[α-CO-3,5-Ph(SO3Na)2]8[ε-CBz]8 [Example 37]", "values": [
      {"measurement": "EC50", "setting": "[1]", "value": 2, "unit": "µg/mL"}
    ]},
    {"substance": "BHALys[Lys]2[GlyLys]4[Lys]8[α,α-COCH2O-3,6-Naph(SO3Na)2]4[α,εCOCH2O-3,6-Naph(SO3Na)2]4[ε,α-COC5H12]4[ε,ε-COC5H12]4 [Example 45]", "values": [
      {"measurement": "EC50", "setting": "[1]", "value": 0.37, "unit": "µg/mL"}
    ]},
    {"substance": "BHALys[Lys]16 [Su(NPN)2]32 [γ-CO-MTX-α-OtBu]32 [COPEG24]32 [Example 62]", "values": [
      {"measurement": "plasma T½", "setting": "[2]", "value": "51.4 ± 2.7", "unit": "h"}
    ]},
    {"substance": "BHALys[Lys]8[Su(NPN)2]16 [γ-CO-MTX-α-OtBu]16 [COPEG24]16 [Example 61]", "values": [
      {"measurement": "plasma T½", "setting": "[2]", "value": "21.0 ± 1.7", "unit": "h"}
    ]},
    {"substance": "BHALys[Lys]16[COCH2O-3,6-Naph(SO3Na)2]32 [SPL7013, reference compound]", "values": [
      {"measurement": "EC50", "setting": "[1]", "value": 1.5, "unit": "µg/mL"},
      {"measurement": "HIV replication", "setting": "[3]", "value": "inhibits HIV replication"}
    ]},
    {"substance": "BHALys[Lys]16 [PEG200]32 [Example 52]", "values": [
      {"measurement": "plasma T½", "setting": "[2]", "value": "0.72 ± 0.03", "unit": "h"},
      {"measurement": "% of 3H dose excreted in total urine", "setting": "[2]", "value": "80.4 ± 13.6", "unit": "%"}
    ]},
    {"substance": "BHALys[Lys]16 [PEG570]32 [Example 53]", "values": [
      {"measurement": "plasma T½", "setting": "[2]", "value": "9.45 ± 0.42", "unit": "h"},
      {"measurement": "% of 3H dose excreted in total urine", "setting": "[2]", "value": "42.9 ± 2.7", "unit": "%"}
    ]},
    {"substance": "BHALys[Lys]8[Su(NPN)2]16 [γ-CO-MTX-α-OtBu]16 [COPEG12]16 [Example 58]", "values": [
      {"measurement": "plasma T½", "setting": "[2]", "value": "9.0 ± 0.2^a h"}
    ]},
    {"substance": "BHALys[GlyLys]2[Lys]4[Boc]6[ε,ε-COCH2O-3,6-Naph (SO3Na)2]2 [Example 49]", "values": [
      {"measurement": "EC50", "setting": "[1]", "value": 2.2, "unit": "µg/mL"}
    ]},
    {"substance": "BHALys[Lys]2[GlyLys]4[Lys]8[α,α-Boc]4[α,ε-Boc]4[ε,α-COCH2O-3,6-Naph(SO3Na)2]4 [ε,ε-COCH2O-3,6-Naph(SO3Na)2]4 [Example 44]", "values": [
      {"measurement": "EC50", "setting": "[1]", "value": 0.33, "unit": "µg/mL"}
    ]},
    {"substance": "BHALys[Lys]16 [α-CO-3,5-Ph(SO3Na)2]16[ε-CBz]16 [Example 40]", "values": [
      {"measurement": "EC50", "setting": "[1]", "value": 3.2, "unit": "µg/mL"}
    ]},
    {"substance": "BHALys[Lys]8[PEG200]16 [Example 51]", "values": [
      {"measurement": "plasma T½", "setting": "[2]", "value": "0.25 ± 0.04", "unit": "h"},
      {"measurement": "% of 3H dose excreted in total urine", "setting": "[2]", "value": "82.2 ± 6.4", "unit": "%"}
    ]},
    {"substance": "BHALys[Lys]8[α-CO-4-Ph(SO3Na)]8[ε-CBz]8 [Example 38]", "values": [
      {"measurement": "EC50", "setting": "[1]", "value": 2.2, "unit": "µg/mL"}
    ]},
    {"substance": "BHALys[Lys]16 [Su(NPN)2]32 [γ-CO-MTX-α-OtBu]32 [COPEG12]32 [Example 59]", "values": [
      {"measurement": "plasma T½", "setting": "[2]", "value": "23.7 ± 5.0", "unit": "h"}
    ]},
    {"substance": "DAH [Lys]8[α-COCH2O-3,6-Naph(SO3Na)2]8[ε-COC5H12]8 [Example 33]", "values": [
      {"measurement": "EC50", "setting": "[1]", "value": 0.71, "unit": "µg/mL"}
    ]},
    {"substance": "BHALys[Lys]8[PEG2KD]16 [Example 54]", "values": [
      {"measurement": "plasma T½", "setting": "[2]", "value": "23.90 ± 2.56", "unit": "h"},
      {"measurement": "% of 3H dose excreted in total urine", "setting": "[2]", "value": "26.0 ± 4.6", "unit": "%"}
    ]},
    {"substance": "BHALys[GlyLys]2[Lys]4[α,α-COCH2O-3,6-Naph(SO3Na)2]2[α,ε-COCH2O-3,6-Naph(SO3Na)2]2[ε,α-COC5H12]2[ε,ε-COC5H12]2 [Example 43]", "values": [
      {"measurement": "EC50", "setting": "[1]", "value": 0.24, "unit": "µg/mL"}
    ]},
    {"substance": "BHALys[Lys]4[α-COCH2O-3,6-Naph(SO3Na)2]4[ε-COC5H12]4 [Example 29]", "values": [
      {"measurement": "EC50", "setting": "[1]", "value": 23.8, "unit": "µg/mL"}
    ]},
    {"substance": "BHALys[Lys]4[α-COC5H12]4[ε-COCH2O-3,6-Naph(SO3Na)2]4 [Example 30]", "values": [
      {"measurement": "EC50", "setting": "[1]", "value": 58.3, "unit": "µg/mL"}
    ]},
    {"substance": "DAH [Lys]8[α-CO-3,5-Ph(SO3Na)2]8[ε-COC5H12]8 [Example 32]", "values": [
      {"measurement": "EC50", "setting": "[1]", "value": 5.8, "unit": "µg/mL"}
    ]},
    {"substance": "BHALys[GlyLys]2[Lys]4[COCH2O-3,6-Naph(SO3Na)2]6 [ε,ε-CBz]2 [Example 48]", "values": [
      {"measurement": "EC50", "setting": "[1]", "value": 0.13, "unit": "µg/mL"},
      {"measurement": "anti-HIV activity compared with SPL7013", "setting": "[1]", "value": "considerably more active than SPL7013; also recorded: significantly more active than SPL7013"}
    ]},
    {"substance": "BHALys[Lys]8[α-CO2PEG3]8[ε-CO-4-PhSO3Na]8 [Example 35]", "values": [
      {"measurement": "EC50", "setting": "[1]", "value": ">500", "unit": "µg/mL"}
    ]},
    {"substance": "BHALys[Lys]8[α-COCH2O-3,6-Naph(SO3Na)2]8[ε-CBz]8 [Example 36]", "values": [
      {"measurement": "EC50", "setting": "[1]", "value": 3.2, "unit": "µg/mL"}
    ]},
    {"substance": "BHALys[Lys]16 [PEG2KD]32 [Example 55]", "values": [
      {"measurement": "plasma T½", "setting": "[2]", "value": "75.35 ± 9.3", "unit": "h"},
      {"measurement": "% of 3H dose excreted in total urine", "setting": "[2]", "value": "3.1 ± 1.9", "unit": "%"}
    ]},
    {"substance": "BHALys[Lys]2[α,ε-Lys][CBz]2[Lys]3 [COCH2O-3,6-Naph(SO3Na)2]6 [Example 46]", "values": [
      {"measurement": "EC50", "setting": "[1]", "value": 0.14, "unit": "µg/mL"},
      {"measurement": "anti-HIV activity compared with SPL7013", "setting": "[1]", "value": "considerably more active than SPL7013; also recorded: significantly more active than SPL7013"}
    ]},
    {"substance": "BHALys[Lys]8[Su(NPN)2]16 [γ-CO-MTX-α-OtBu]16 [COPEG2300]16 [Example 63]", "values": [
      {"measurement": "plasma T½", "setting": "[2]", "value": "34.1 ± 1.1", "unit": "h"}
    ]}
  ]
}
